“Also recorded” adds a separate entry of the source.
Assays:
[1] = test system: bone marrow-derived DCs (BMDCs); assay: DC oxygen consumption rate (OCR) / OXPHOS, extracellular flux analysis; type: cell-based, murine; details: murine DCs pre-treated with Wnt5a vs Wnt5a+ETO
Procedure: (§1) DC energy metabolism was measured using the XF^e24 extracellular flux analyzer (Seahorse Bioscience), with the glycolysis stress test kit and the mitochondrial stress test kit as previously described (Everts et al., 2014; Zhao and Klimecki, 2015).
(§2) Murine bone marrow-derived DCs (BMDCs) were harvested and differentiated as previously described and purified using CD11c microbeads (Miltenyi Biotec) according to manufacturer's protocol. DC purity was monitored by flow cytometry and consistently found to be >95% CD11c+F4/80-. BRAFV600EPTEN−/−-Wnt5aKD and BRAFV600EPTEN−/−-NTC cell lines were generated and cultured as previously described. DC2.4, a murine dendritic cell line was kindly provided by Dr. Kenneth L. Rock (University of Massachusetts Medical School), and cultured as previously described. DC2.4β-cateninKD, DC2.4-CPT1AKD, and DC2.4-NTC stable cell lines were generated using a β-catenin-targeted, CPT1A-targeted, or control shRNA-expressing lentivirus followed by puromycin selection. DCs were treated with Wnt3a (100 ng/mL), Wnt5a (200 ng/mL), LPS (1 μg/mL), 1-MT, 2DG (1 mM), or ETO (100 µM) vs vehicle control either for 24 or 48 hrs prior to their use in both in vitro and in vivo experiments.

[2] = test system: human monocyte-derived DCs; assay: OCR analysis of human monocyte-derived DCs; type: cell-based; details: human DCs pre-treated with Wnt5a 48 hours, short-term ETO
Procedure: Human DCs were differentiated from harvested peripheral blood mononuclear cells and pre-treated with Wnt5a 48 hours prior to OCR analysis. Short-term incubation with ETO was performed prior to analysis.
as §1
Human Monocyte-derived Dendritic Cells were generated as previously described.

BMDCs = assay: DC viability, Annexin V/PI flow cytometry; type: cell-based, murine; details: BMDCs treated 48 hours
Text: Data is representative of two-independent experiments.

[3] = test system: DC-induced CD4+ FoxP3+ Tregs; assay: In vitro Treg assay; type: cell-based, mouse
Procedure: (§3) In vivo Treg assay. DCs (C57, H-2^b) were pre-treated for 48 hours and delivered by intradermal injection into the footpad of Foxp3-mRFP mice. Draining inguinal and popliteal lymph nodes were resected 5 days later and analyzed for CD4^+ Foxp3^+ Tregs. In vitro Treg assay, DCs (Balb/c, H-2^d) were pre-treated for either 24 or 48 hrs, and re-plated at a 1:3 DC:T-cell ratio with purified naïve Foxp3-mRFP(H-2^b) CD4^+ Tcells. These co-cultures were incubated for 6 days and quantitated for CD4^+ FoxP3^+ Tregs by flow cytometry.
as §2

[4] = test system: DC-induced CD4+ Foxp3+ Tregs in draining lymph nodes; assay: In vivo Treg assay; details: conditioned primary DCs transferred into footpad of FoxP3-mRFP reporter mice
Procedure: as §3

OT-1 CD8+ T cells = assay: T cell proliferation assay; type: cell-based, mouse; details: SIINFEKL-loaded BMDCs co-incubated with OT-1 splenocytes
Procedure: Splenocytes of OT-1 mice (H-2^b) were isolated and stained with CellTrace Violet (ThermoFisher). Preconditioned DCs were loaded with ovalbumin peptide SIINFEKL, and co-cultured at a DC:splenocyte ratio of 40,000:120,000 cells for 72 hrs. CD8+ T cell proliferation was measured by the dilution of Cell Trace Violet dye by flow cytometry.

DC IDO = assay: IDO enzymatic assay (kynurenine HPLC); type: cell-based, mouse
Procedure: DC IDO enzyme activity was measured by the conversion of L-tryptophan to L-kynurenine in conditioned media by HPLC (Pallotta et al., 2011). Intracellular hemin levels were measured using a colorimetric assay kit (BioVision).

murine DCs = assay: qrt-PCR / ELISA gene and cytokine expression in murine DCs; type: cell-based; details: BMDCs, qrt-PCR
Procedure: Total RNA was isolated by RNeasy Plus Mini Kit(Qiagen). RNA(500 ng) was used in cDNA Synthesis (iScript, BioRad). Quantification of mRNA for genes involved in PPARγ signaling was performed using Mouse PrimePCR PPAR Array according to the manufacturer's protocol (BioRad). Real-time PCR was performed using an ABI7500 Real-Time PCR system (Life Technologies). Data analysis utilized the PrimePCR Analysis Software (BioRad). Conventional qPCR was performed using validated primers (Table 1) and SsoAdvanced Universal SYBR Green Super mix (BioRad) or Taqman probes (Applied Biosystems) for heme synthesis enzymes.
Murine IL-6 (eBioscience) and IL-12p40 (Becton Dickinson) ELISAs were performed according to manufacture's protocol.

[5] = test system: BRAFV600EPTEN−/− melanoma; assay: Syngeneic transplant tumor study; type: in vivo, C57BL/6 mice
Procedure: Mouse IFNγ ELISPOTPLUS (MABTECH) was performed according to manufacture guidelines. Imaging was conducted using a ChemiDoc System (BioRad) and quantified using ImageJ software.
Paraffin-embedded tissues were processed and stained following standard protocols and imaged with a Zeiss CLSM 700 confocal microscope. CD8 (BioLegend) and PD-L1 (Abcam) primary antibodies were utilized where indicated. Warp Red chromogen detection system (BioCare) was used for antigen visualization.
BRAFV600EPTEN−/− cells line were established as previously described. 5×10^5 cells were implanted by subcutaneous injection into syngeneic C57 mice. Tumor growth was monitored by caliper measurement. Etomoxir (Sigma, ETO) was administered daily by oral gavage (25 mg/kg/day). Anti-PD-1 rat mAb or rat IgG2a isotype control (BioXCell) was delivered every 3 days by intraperitoneal injection (250 μg/dose).

[6] = test system: autochthonous BRAFV600EPTEN−/− melanoma; assay: Autochthonous tumor study with adoptively transferred pretreated DCs; type: in vivo, transgenic mice
Procedure: B6.Cg-Braftm1Mmcm Ptentm1Hwu Tg(Tyr-cre/ERT2 H-2b)13Bos/BosJ (BRAFV600EPTEN−/−, H-2b), transgenic mice were subdermally injected with 4-HT (Sigma, 38.75 μg/mice) to induce primary melanoma development. Three days prior to 4-HT injection, 1×10^6 cells DCs pretreated with Wnt5a+/−ETO were washed and delivered by intra-dermal injection into the hind leg foot pads every 3-4 days until the conclusion of the experiment. Melanoma growth was monitored by orthagonal caliper measurements every 3-4 days between day 15 to day 32.

BRAFV600EPTEN−/− cells = assay: Soft agar colony formation assay; type: cell-based, mouse; details: 15 days in presence or absence of ETO
Procedure: Complete growth media—0.7% agar was overlaid with complete growth media—[…] containing 10,000 cells and additional complete growth media. After 2 weeks, colonies were stained with MTT(Sigma) to identify viable colonies and imaged by a ChemiDoc XRSplus system as previously described. Images were analyzed with NIH ImageJ to enumerate colony number.

CPT1a = CPT1a silencing by shRNA-expressing lentiviral vector (qrt-PCR, Western blot); type: cell-based, mouse
Text: The application includes the sequence listing that is concurrently filed in computer readable form. This sequence listing is incorporated by reference herein.
as §2, with “experiments. […]” for “experiments.”
Total RNA was isolated by RNeasy Plus Mini Kit(Qiagen). […] Quantification of mRNA for genes involved in PPARγ signaling was performed using Mouse PrimePCR PPAR Array according to the manufacturer's protocol (BioRad). […]

[7] = DCs pretreated with Wnt5a+/−ETO

| Molecule | Wnt5a-induced DC OXPHOS / mitochondrial respiration (OCR) [1] | Wnt5a-induced DC mitochondrial respiration (OCR) [2] | DC viability (BMDCs) | DC-mediated Treg differentiation in vitro, IDO−/− DCs ([3]; DCs derived from IDO−/− mice +/−ETO) | DC-mediated Treg differentiation in vitro ([3]; pre-treated DCs co-cultured with naïve CD4+ T cells) | DC-mediated Treg differentiation in vivo [4] | DC-mediated antigen-specific CD8+ T cell proliferation (OT-1 CD8+ T cells) | TIDC IDO enzyme activity (kynurenine) (DC IDO; TIDCs purified from BRAFV600E-PTEN−/−-NTC tumors) | DC IDO enzymatic activity (kynurenine) (DC IDO; purified DC cultures, Wnt5a or Wnt5a+ETO) | IL-6 and IL-12 expression in primary DCs (murine DCs) | primary melanoma growth, ETO combined with anti-PD-1 antibody ([5]; ETO 25 mg/kg/day oral gavage plus anti-PD-1 250 μg/dose i.p. every 3 days) | primary melanoma progression, monotherapy ([5]; ETO 25 mg/kg/day oral gavage, anti-PD-1 250 μg/dose i.p. every 3 days) | Tregs within draining LN tissues [6, 7] | melanoma-infiltrating CD8+ T cells [6, 7] | primary melanoma progression ([6]; DCs pretreated with Wnt5a+/−ETO transferred to foot pads) | intrinsic proliferative capacity of tumor cells (soft agar colonies) (BRAFV600EPTEN−/− cells) | silencing of mouse CPT1a expression (CPT1a) |
| --- | --- | --- | --- | --- | --- | --- | --- | --- | --- | --- | --- | --- | --- | --- | --- | --- | --- |
| CCOC(=O)[C@@]1(CCCCCCOc2ccc(Cl)cc2)CO1 [ETO, etomoxir] | ablate Wnt5a-induced DC OXPHOS; also recorded: completely ablate Wnt5a induction of both murine and human DC mitochondrial respiration; also recorded: abrogates Wnt5a-induced DC OXPHOS | completely ablate Wnt5a induction of both murine and human DC mitochondrial respiration | does not impair DC viability; also recorded: not impacting DC viability | dramatically suppress the ability of IDO^−/− DCs to drive Treg differentiation; also recorded: inhibition of DC-mediated Treg generation extends beyond IDO activity | ablate; also recorded: potently suppress the ability of Wnt5a-conditioned DCs to drive Treg differentiation; also recorded: inhibits Wnt5a-conditioning of DC-mediated Treg development in vitro | ablate; also recorded: potently suppress the ability of Wnt5a-conditioned DCs to drive Treg differentiation; also recorded: inhibits Wnt5a-conditioning of DC-mediated Treg development in vivo | significantly augment in vitro DC-dependent T cell proliferation to levels similar to that of LPS stimulation; also recorded: potently induce DC-mediated T cell activation to levels similar to those seen in response to LPS-treatment of DCs; also recorded: enhances the ability of DCs to induce OT-1 T cell proliferation | lower levels of IDO enzyme activity | completely eliminated this effect; also recorded: reverses Wnt5a-stimulation of DC IDO enzymatic activity | alterations in cytokine expression were further recapitulated | significantly enhanced the anti-tumor efficacy of the anti-PD-1 antibody; also recorded: augments anti-PD-1 antibody suppression | suppresses the progression of BRAF^V600E-PTEN^−/− melanoma similar to anti-PD-1 antibody monotherapy | suppression of Tregs within draining LN tissues | enhanced numbers of melanoma-infiltrating CD8+ T cells | potently suppress primary melanoma progression | has no impact on the intrinsic proliferative capacity of this tumor model |  |
| SEQ ID NO:1: shRNA sequence for silencing mouse CPT1a (guide CCGGGCTATGGTGTTTCCTACATTACTCGAGTAATGTAGGAAACACCATAGCTTTTTG) |  |  |  |  |  |  |  |  |  |  |  |  |  |  |  |  | effective for silencing the expression of mouse CPT1a |

Reference: patent publication US10617749B1, “Composition of matter and methods for alteration of dendritic cell metabolism to augment cancer vaccine efficacy” (Duke University, priority 2016, dated 2020)
